Results as given in ChEMBL document CHEMBL1145617, “Identification of acridinyl hydrazides as potent aspartic protease inhibitors” (Bioorg Med Chem Lett, 2008).

How the values were obtained:
Cathepsin D = Cathepsin D (Homo sapiens, UniProt P07339); experiment: Inhibition of human cathepsin D by FRET assay
Plasmepsin II = Plasmepsin II (Plasmodium falciparum, UniProt P46925); experiment: Inhibition of Plasmodium falciparum plasmepsin-2 by FRET assay
Plasmepsin II, sequence (P46925 whole entry): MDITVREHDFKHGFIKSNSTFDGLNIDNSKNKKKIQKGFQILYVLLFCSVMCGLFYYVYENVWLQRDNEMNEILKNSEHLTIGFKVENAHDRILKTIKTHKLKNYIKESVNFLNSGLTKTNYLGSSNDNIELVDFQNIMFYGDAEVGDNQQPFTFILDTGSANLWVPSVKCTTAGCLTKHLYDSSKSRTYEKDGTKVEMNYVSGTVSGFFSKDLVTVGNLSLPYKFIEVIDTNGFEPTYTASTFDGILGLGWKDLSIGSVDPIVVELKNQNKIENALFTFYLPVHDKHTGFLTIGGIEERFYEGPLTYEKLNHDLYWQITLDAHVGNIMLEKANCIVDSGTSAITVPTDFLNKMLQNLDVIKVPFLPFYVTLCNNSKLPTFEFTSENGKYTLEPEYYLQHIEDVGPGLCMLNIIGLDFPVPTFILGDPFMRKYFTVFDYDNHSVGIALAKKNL

Cathepsin D, sequence (P07339 65-162 limits assumed): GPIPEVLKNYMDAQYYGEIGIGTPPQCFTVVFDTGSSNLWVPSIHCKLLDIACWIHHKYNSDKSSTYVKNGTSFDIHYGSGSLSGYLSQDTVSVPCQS
Cathepsin D, sequence (P07339 169-412 limits assumed): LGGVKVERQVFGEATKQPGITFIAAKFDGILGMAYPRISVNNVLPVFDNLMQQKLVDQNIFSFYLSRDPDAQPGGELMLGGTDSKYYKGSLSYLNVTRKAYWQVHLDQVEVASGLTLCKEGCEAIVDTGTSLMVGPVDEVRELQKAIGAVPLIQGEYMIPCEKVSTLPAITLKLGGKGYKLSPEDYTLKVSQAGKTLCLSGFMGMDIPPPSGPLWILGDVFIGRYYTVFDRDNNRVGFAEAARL

| IC50 (Cathepsin D) [nM] | IC50 (Plasmepsin II) [nM] | Compound |
| --- | --- | --- |
| 0.5 | 0.13 | Cc1ccc2c(NNC(=O)c3ccccc3O)c3ccccc3nc2c1C |
| 9 | 4 | Cc1cccc(C(=O)NNc2c3ccccc3nc3c(C)c(C)ccc23)c1 |

| Compound | IC50 (Cathepsin D) [nM] | IC50 (Plasmepsin II) [nM] |
| --- | --- | --- |
| CC(C)CC(=O)N[C@H](C(=O)N[C@H](C(=O)N[C@@H](CC(C)C)[C@@H](O)CC(=O)N[C@@H](C)C(=O)N[C@@H](CC(C)C)[C@@H](O)CC(=O)O)C(C)C)C(C)C [PEPSTATIN] | – | 0.68 |
